# Measured values taken from ChEMBL document CHEMBL5137065, “Recent Advances with KDM4 Inhibitors and Potential Applications” (J Med Chem, 2022).
# Legend:
# [1] = target: T1, Lysine-specific demethylase 4A (Homo sapiens, UniProt O75164); assay: Inhibition of recombinant HQ5-Halo-tagged KDM4A tudor domain (unknown origin) measured by fluorescence polarization assay
# T1 sequence (O75164 whole entry): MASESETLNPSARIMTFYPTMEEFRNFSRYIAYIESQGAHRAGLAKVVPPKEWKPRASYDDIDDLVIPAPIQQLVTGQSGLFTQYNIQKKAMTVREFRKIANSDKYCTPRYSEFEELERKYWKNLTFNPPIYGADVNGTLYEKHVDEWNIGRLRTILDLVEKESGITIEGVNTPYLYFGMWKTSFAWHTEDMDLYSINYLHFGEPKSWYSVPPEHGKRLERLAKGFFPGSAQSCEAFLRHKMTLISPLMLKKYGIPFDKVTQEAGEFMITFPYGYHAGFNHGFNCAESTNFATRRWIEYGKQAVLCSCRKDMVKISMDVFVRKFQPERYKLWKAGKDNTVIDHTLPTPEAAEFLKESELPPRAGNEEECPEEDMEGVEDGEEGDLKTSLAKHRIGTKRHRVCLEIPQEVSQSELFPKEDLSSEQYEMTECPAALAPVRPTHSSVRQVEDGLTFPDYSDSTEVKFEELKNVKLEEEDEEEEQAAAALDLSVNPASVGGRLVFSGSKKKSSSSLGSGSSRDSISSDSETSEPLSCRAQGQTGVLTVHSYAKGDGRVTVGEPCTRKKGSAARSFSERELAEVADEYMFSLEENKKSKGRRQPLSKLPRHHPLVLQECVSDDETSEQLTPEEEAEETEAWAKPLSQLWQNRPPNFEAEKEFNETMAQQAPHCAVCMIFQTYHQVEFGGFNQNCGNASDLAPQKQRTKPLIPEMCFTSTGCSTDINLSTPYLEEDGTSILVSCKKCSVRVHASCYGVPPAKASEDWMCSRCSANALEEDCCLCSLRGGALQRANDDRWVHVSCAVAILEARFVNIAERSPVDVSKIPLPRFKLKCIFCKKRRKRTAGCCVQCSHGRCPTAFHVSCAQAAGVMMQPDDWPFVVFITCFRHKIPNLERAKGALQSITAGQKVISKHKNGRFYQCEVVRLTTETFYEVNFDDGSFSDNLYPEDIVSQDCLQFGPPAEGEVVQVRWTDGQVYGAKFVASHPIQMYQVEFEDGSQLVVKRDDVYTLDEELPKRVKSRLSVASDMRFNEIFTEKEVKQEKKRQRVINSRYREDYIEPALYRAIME
# [2] = target: T2, Lysine-specific demethylase 4C (Homo sapiens, UniProt Q9H3R0); assay: Inhibition of KDM4C (unknown origin) using H3K9me3 as substrate and measured by antibody-based assay
# T2 sequence (Q9H3R0 whole entry): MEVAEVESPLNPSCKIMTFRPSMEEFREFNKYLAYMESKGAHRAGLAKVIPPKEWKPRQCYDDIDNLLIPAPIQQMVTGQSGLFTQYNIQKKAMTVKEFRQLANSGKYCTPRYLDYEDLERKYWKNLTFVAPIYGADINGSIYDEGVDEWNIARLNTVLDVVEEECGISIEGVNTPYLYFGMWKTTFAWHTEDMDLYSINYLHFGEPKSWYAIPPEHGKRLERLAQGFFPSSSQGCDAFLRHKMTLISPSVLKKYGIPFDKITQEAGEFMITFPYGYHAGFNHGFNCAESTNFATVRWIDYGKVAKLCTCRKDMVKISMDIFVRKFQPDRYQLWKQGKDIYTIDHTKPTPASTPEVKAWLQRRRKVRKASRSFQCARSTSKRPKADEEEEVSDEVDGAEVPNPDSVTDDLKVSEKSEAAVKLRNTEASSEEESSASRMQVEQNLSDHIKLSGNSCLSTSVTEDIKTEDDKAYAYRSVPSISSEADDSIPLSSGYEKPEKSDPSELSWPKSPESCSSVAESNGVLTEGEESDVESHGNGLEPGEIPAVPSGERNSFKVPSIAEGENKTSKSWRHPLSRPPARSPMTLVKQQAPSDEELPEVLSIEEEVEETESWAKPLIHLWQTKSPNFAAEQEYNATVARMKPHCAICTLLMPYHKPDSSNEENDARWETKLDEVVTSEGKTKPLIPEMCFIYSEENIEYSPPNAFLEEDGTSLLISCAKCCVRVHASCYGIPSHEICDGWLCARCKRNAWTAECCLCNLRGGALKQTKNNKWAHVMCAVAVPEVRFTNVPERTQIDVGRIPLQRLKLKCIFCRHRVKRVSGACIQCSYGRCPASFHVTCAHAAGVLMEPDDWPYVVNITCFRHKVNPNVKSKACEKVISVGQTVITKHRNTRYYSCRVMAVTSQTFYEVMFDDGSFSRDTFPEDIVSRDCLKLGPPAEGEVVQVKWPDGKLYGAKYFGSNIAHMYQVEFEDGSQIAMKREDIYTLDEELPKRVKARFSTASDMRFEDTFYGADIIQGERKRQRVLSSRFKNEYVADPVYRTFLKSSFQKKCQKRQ
# DU-145 = assay: Antiproliferative activity against human DU-145 cells measured by Alamarblue assay; assay type: functional
# LNCaP = assay: Antiproliferative activity against human LNCaP cells measured by Alamarblue assay; assay type: functional
# [3] = Inhibition of KDM4 (unknown origin) measured by ESI-TOF MS assay; set-up: species or system Homo sapiens
# [4] = target: T3, Lysine-specific demethylase 4B (Homo sapiens, UniProt O94953); assay: Inhibition of KDM4B (unknown origin) measured by ELISA assay
# T3 sequence (O94953 whole entry): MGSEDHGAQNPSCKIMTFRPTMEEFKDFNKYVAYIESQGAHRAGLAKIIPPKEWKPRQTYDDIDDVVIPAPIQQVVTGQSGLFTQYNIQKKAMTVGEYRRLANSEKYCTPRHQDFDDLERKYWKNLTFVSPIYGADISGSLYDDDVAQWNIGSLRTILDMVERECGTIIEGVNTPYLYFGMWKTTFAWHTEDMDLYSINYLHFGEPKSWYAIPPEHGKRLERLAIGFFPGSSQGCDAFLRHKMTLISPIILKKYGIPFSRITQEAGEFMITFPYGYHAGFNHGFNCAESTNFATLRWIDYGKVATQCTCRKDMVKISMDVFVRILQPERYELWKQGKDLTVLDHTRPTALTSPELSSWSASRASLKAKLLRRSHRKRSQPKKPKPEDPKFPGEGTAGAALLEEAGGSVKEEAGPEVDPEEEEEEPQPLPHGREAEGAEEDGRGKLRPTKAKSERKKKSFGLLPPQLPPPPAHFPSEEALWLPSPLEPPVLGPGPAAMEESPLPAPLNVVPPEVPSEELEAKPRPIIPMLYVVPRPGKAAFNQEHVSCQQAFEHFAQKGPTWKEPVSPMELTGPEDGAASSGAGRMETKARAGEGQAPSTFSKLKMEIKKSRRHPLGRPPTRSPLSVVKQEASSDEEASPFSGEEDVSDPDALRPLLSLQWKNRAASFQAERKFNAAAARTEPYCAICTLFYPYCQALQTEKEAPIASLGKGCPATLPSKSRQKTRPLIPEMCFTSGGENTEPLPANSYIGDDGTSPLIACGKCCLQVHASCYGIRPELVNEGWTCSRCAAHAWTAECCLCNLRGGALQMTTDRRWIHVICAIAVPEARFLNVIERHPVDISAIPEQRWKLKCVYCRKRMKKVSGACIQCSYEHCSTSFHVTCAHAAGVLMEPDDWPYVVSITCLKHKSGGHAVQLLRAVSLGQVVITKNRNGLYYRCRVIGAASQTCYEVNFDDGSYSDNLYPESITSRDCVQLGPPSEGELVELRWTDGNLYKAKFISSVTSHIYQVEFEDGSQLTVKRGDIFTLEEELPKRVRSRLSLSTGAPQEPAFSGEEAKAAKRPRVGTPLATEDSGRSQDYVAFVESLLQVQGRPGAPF
# [5] = target: T1, Lysine-specific demethylase 4A; assay: Inhibition of human KDM4A (1 to 350 residues) measured by ELISA assay
# [6] = Inhibition of KDM4 in human KYSE-150 cells assessed as induction of H3K9me3 accumulation measured by immunostaining method; assay type: cell-based, KYSE-150 cell line
# [7] = Inhibition of KDM4 in human MCF7 cells assessed as induction of H3K9me3 accumulation measured by immunostaining method; assay type: cell-based
# KYSE-150 cell line = assay: Growth inhibition of human KYSE-150 cells measured after 48 hrs; assay type: functional
# [8] = Lipophilicity, logD of compound at pH 7.4 by Chromatography; assay type: physicochemical; settings: buffer
# [9] = target: T4, Lysine-specific demethylase 4D (Homo sapiens, UniProt Q6B0I6); assay: Inhibition of KDM4D (unknown origin) using H3K9me3 as substrate and measured by LANCE TR-FRET assay
# T4 sequence (Q6B0I6 whole entry): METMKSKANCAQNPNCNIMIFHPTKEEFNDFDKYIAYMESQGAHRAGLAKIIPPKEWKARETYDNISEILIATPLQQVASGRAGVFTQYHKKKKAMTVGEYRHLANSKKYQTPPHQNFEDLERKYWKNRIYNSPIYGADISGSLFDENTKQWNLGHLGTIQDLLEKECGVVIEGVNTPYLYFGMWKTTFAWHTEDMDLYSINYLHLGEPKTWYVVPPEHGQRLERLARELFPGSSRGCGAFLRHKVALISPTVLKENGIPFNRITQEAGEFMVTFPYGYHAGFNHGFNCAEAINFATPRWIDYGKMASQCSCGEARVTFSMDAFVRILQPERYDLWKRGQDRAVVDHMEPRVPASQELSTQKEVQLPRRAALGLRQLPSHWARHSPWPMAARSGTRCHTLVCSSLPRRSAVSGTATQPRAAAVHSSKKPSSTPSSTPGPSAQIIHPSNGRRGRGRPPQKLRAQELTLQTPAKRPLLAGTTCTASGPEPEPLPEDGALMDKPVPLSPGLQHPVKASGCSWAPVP
# [10] = target: T3, Lysine-specific demethylase 4B; assay: Inhibition of KDM4B (unknown origin) using H3K9me3 as substrate and measured by LANCE TR-FRET assay
# [11] = target: T1, Lysine-specific demethylase 4A; assay: Inhibition of KDM4A (unknown origin) using H3K9me3 as substrate and measured by LANCE TR-FRET assay
# [12] = target: T2, Lysine-specific demethylase 4C; assay: Inhibition of KDM4C (unknown origin) using H3K9me3 as substrate and measured by LANCE TR-FRET assay
# [13] = target: T2, Lysine-specific demethylase 4C; assay: Inhibition of N-terminal GST-tagged human KDM4C (2 to 372 residues) expressed in baculovirus-infected Sf9 cells measured by high-throughput mass spectrometry assay
# [14] = target: T4, Lysine-specific demethylase 4D; assay: Inhibition of KDM4D (unknown origin) measured by AlphaLisa-based screening assay
# [15] = target: T1, Lysine-specific demethylase 4A; assay: Inhibition of KDM4A (unknown origin) measured by AlphaLisa-based screening assay
# [16] = target: T3, Lysine-specific demethylase 4B; assay: Inhibition of GST-tagged KDM4B (unknown origin) using H3K9(me3)-biotin peptide as substrate incubated for 30 mins and measured after 15 mins by TR-FRET assay
# [17] = Antiproliferative activity against human neuroblastoma cells after 3 days by PrestoBlue assay; assay type: functional, cell-based; settings: Neuroblastoma cell, 72 h
# [18] = target: T5, Lysine-specific demethylase 4E (Homo sapiens, UniProt B2RXH2)
# T5 sequence (B2RXH2 whole entry): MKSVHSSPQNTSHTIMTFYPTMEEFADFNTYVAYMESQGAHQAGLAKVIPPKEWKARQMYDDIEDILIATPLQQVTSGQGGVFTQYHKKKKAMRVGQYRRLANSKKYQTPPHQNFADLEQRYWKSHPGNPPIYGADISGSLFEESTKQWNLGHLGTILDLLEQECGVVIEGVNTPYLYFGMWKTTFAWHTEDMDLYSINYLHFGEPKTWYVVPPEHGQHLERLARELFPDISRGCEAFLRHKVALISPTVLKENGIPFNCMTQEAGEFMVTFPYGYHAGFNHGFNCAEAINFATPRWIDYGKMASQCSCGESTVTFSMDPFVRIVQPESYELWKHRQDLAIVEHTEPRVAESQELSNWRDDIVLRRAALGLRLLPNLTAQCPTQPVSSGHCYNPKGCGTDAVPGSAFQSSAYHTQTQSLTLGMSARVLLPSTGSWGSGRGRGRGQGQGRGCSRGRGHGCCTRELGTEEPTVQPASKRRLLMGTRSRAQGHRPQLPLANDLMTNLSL
compound,measurement,setting,value
CCCCc1oc2ccccc2c1C(=O)c1cc(I)c(OCCN)c(I)c1,IC50,[1],26 µM
CC(C)C(=O)NC(c1ccco1)c1ccc2cccnc2c1O (stereo not drawn),IC50,[2],30 µM
Cc1nn(-c2nc3ccccc3[nH]2)c(O)c1-c1ccccc1,GI50,DU-145,8 µM
same,GI50,LNCaP,8 µM
O=C(O)/C=C/C(=O)N(O)CCCCNCc1ccc(COC(=O)Nc2cccc3ccccc23)cc1,IC50,[3],4.3 µM
Clc1ccc(N/N=C(\c2ccccc2)c2ccccn2)nc1,IC50,[4],0.29 µM
same,IC50,[5],0.29 µM
COC(=O)/C=C/C(=O)N(O)CCCCNCc1ccc(COC(=O)Nc2cccc3ccccc23)cc1,EC50,[6],8.6 µM
same,EC50,[7],6.3 µM
same,GI50,KYSE-150 cell line,5.1 µM
O=c1[nH]c(Oc2cnn(Cc3ccccc3)c2)nc2cnccc12,chromatographic logD,[8],1.8
O=C(O)c1ccncc1NCc1ccco1,chromatographic logD,[8],0.1
CN(c1ccccc1)c1ccc2c(c1)CCC[C@H]2CNc1cnccc1C(=O)O,IC50,[9],0.035 µM
same,IC50,[10],0.035 µM
same,IC50,[11],0.035 µM
CCCCc1oc2ccccc2c1C(=O)c1cc(I)c(OCC[N+](C)(C)C)c(I)c1,IC50,[1],26 µM
CNc1cnccc1C(=O)O,IC50,[12],1.4 µM
O=C(O)c1ccnc(-c2ccc[nH]2)c1,Ki,[13],0.031 µM
CC(C)(C)OC(=O)C[C@@H]1CCN(C(c2ccc(-c3ccncc3)cc2)c2cc3c(cc2O)OCO3)C1 (stereo partly drawn),IC50,[14],0.023 µM
same,IC50,[15],> 100 µM
Cc1cc(C2CCCCC2)n(O)c(=O)c1 [CICLOPIROX],IC50,[16],3.8 µM
same,IC50,[17],0.2 µM
CC(/C=C/C(=O)NO)=C\[C@@H](C)C(=O)c1ccc(N(C)C)cc1 [TRICHOSTATIN],IC50,[18],28.4 µM
